Experimental data published in patent publication US20120156771A1, “FUNCTIONAL DISRUPTION OF AN IMMUNOGLOBULIN GENE IN AN AVIAN EMBRYONIC STEM CELL” (Origen Therapeutics, Inc., priority 2002, published 2012).

Tested on: chicken embryonic stem cells
Test: Titration kill curve: morphology of cES cells under puromycin or neomycin selection
Format: cell-based
Set-up: key to Morphology of cES cells: ES: ES cells are present.; diff: ES cells are differentiated.; gone: no morphologically recognizable cells are present
Method: In a preferred embodiment, the concentration of puromycin required for selecting transfected cells is calculated as a titration kill curve. Titration kill curves for chicken embryonic stem cells are established by exposing cells in culture to puromycin concentrations varying from 0.0 to 1.0 μg/ml for 10 days (Table 7) and neomycin concentrations varying from 0.0 to 200 μg/ml (Table 8). The medium is changed every 2 days and fresh puromycin or neomycin is added. […] Puromycin concentrations of 0.3-1.0 μg/ml are used for selection of the transfected cultures. Neomycin concentrations over 40 μg/ml eliminated all cES cells within 7 days (Table 8).

neomycin
Morphology of cES cells (neomycin 10 μg/ml, day 1 under selection): ES
Morphology of cES cells (neomycin 10 μg/ml, day 2 under selection): ES
Morphology of cES cells (neomycin 10 μg/ml, day 3 under selection): ES
Morphology of cES cells (neomycin 10 μg/ml, day 4 under selection): ES
Morphology of cES cells (neomycin 10 μg/ml, day 5 under selection): ES
Morphology of cES cells (neomycin 10 μg/ml, day 6 under selection): ES
Morphology of cES cells (neomycin 10 μg/ml, day 7 under selection): ES
Morphology of cES cells (neomycin 10 μg/ml, day 8 under selection): ES
Morphology of cES cells (neomycin 10 μg/ml, day 9 under selection): ES
Morphology of cES cells (neomycin 10 μg/ml, day 10 under selection): ES
Morphology of cES cells (neomycin 20 μg/ml, day 1 under selection): ES
Morphology of cES cells (neomycin 20 μg/ml, day 2 under selection): ES
Morphology of cES cells (neomycin 20 μg/ml, day 3 under selection): ES
Morphology of cES cells (neomycin 20 μg/ml, day 4 under selection): ES
Morphology of cES cells (neomycin 20 μg/ml, day 5 under selection): ES
Morphology of cES cells (neomycin 20 μg/ml, day 6 under selection): ES
Morphology of cES cells (neomycin 20 μg/ml, day 7 under selection): ES
Morphology of cES cells (neomycin 20 μg/ml, day 8 under selection): ES
Morphology of cES cells (neomycin 20 μg/ml, day 9 under selection): ES
Morphology of cES cells (neomycin 20 μg/ml, day 10 under selection): ES
Morphology of cES cells (neomycin 30 μg/ml, day 1 under selection): ES
Morphology of cES cells (neomycin 30 μg/ml, day 2 under selection): ES
Morphology of cES cells (neomycin 30 μg/ml, day 3 under selection): ES
Morphology of cES cells (neomycin 30 μg/ml, day 4 under selection): ES
Morphology of cES cells (neomycin 30 μg/ml, day 5 under selection): ES
Morphology of cES cells (neomycin 30 μg/ml, day 6 under selection): ES
Morphology of cES cells (neomycin 30 μg/ml, day 7 under selection): ES/Diff
Morphology of cES cells (neomycin 30 μg/ml, day 8 under selection): ES/diff
Morphology of cES cells (neomycin 30 μg/ml, day 9 under selection): Diff
Morphology of cES cells (neomycin 40 μg/ml, day 1 under selection): ES
Morphology of cES cells (neomycin 40 μg/ml, day 2 under selection): ES
Morphology of cES cells (neomycin 40 μg/ml, day 3 under selection): ES
Morphology of cES cells (neomycin 40 μg/ml, day 4 under selection): ES
Morphology of cES cells (neomycin 40 μg/ml, day 5 under selection): ES/Diff
Morphology of cES cells (neomycin 40 μg/ml, day 7 under selection): dead
Morphology of cES cells (neomycin 40 μg/ml, day 8 under selection): gone
Morphology of cES cells (neomycin 40 μg/ml, day 9 under selection): gone
Morphology of cES cells (neomycin 40 μg/ml, day 10 under selection): gone
Morphology of cES cells (neomycin 50 μg/ml, day 1 under selection): ES
Morphology of cES cells (neomycin 50 μg/ml, day 2 under selection): ES
Morphology of cES cells (neomycin 50 μg/ml, day 3 under selection): ES
Morphology of cES cells (neomycin 50 μg/ml, day 4 under selection): ES/Diff
Morphology of cES cells (neomycin 50 μg/ml, day 5 under selection): ES/Diff
Morphology of cES cells (neomycin 50 μg/ml, day 8 under selection): gone
Morphology of cES cells (neomycin 50 μg/ml, day 9 under selection): gone
Morphology of cES cells (neomycin 50 μg/ml, day 10 under selection): gone
Morphology of cES cells (neomycin 60 μg/ml, day 1 under selection): ES
Morphology of cES cells (neomycin 60 μg/ml, day 2 under selection): ES
Morphology of cES cells (neomycin 60 μg/ml, day 3 under selection): ES
Morphology of cES cells (neomycin 60 μg/ml, day 4 under selection): gone
Morphology of cES cells (neomycin 60 μg/ml, day 5 under selection): Gone
Morphology of cES cells (neomycin 60 μg/ml, day 6 under selection): gone
Morphology of cES cells (neomycin 60 μg/ml, day 7 under selection): gone
Morphology of cES cells (neomycin 60 μg/ml, day 8 under selection): gone
Morphology of cES cells (neomycin 60 μg/ml, day 9 under selection): gone
Morphology of cES cells (neomycin 60 μg/ml, day 10 under selection): gone
Morphology of cES cells (neomycin 100 μg/ml, day 1 under selection): ES/Diff
Morphology of cES cells (neomycin 100 μg/ml, day 2 under selection): Diff
Morphology of cES cells (neomycin 100 μg/ml, day 3 under selection): dead
Morphology of cES cells (neomycin 100 μg/ml, day 4 under selection): gone
Morphology of cES cells (neomycin 100 μg/ml, day 5 under selection): Gone
Morphology of cES cells (neomycin 100 μg/ml, day 6 under selection): gone
Morphology of cES cells (neomycin 100 μg/ml, day 7 under selection): gone
Morphology of cES cells (neomycin 100 μg/ml, day 8 under selection): gone
Morphology of cES cells (neomycin 100 μg/ml, day 9 under selection): gone
Morphology of cES cells (neomycin 100 μg/ml, day 10 under selection): gone
Morphology of cES cells (neomycin 150 μg/ml, day 2 under selection): dead
Morphology of cES cells (neomycin 150 μg/ml, day 3 under selection): dead
Morphology of cES cells (neomycin 150 μg/ml, day 4 under selection): gone
Morphology of cES cells (neomycin 150 μg/ml, day 5 under selection): Gone
Morphology of cES cells (neomycin 150 μg/ml, day 6 under selection): gone
Morphology of cES cells (neomycin 150 μg/ml, day 7 under selection): gone
Morphology of cES cells (neomycin 150 μg/ml, day 8 under selection): gone
Morphology of cES cells (neomycin 150 μg/ml, day 9 under selection): gone
Morphology of cES cells (neomycin 150 μg/ml, day 10 under selection): gone
Morphology of cES cells (neomycin 200 μg/ml, day 2 under selection): dead
Morphology of cES cells (neomycin 200 μg/ml, day 3 under selection): gone
Morphology of cES cells (neomycin 200 μg/ml, day 4 under selection): gone
Morphology of cES cells (neomycin 200 μg/ml, day 5 under selection): Gone
Morphology of cES cells (neomycin 200 μg/ml, day 6 under selection): gone
Morphology of cES cells (neomycin 200 μg/ml, day 7 under selection): gone
Morphology of cES cells (neomycin 200 μg/ml, day 8 under selection): gone
Morphology of cES cells (neomycin 200 μg/ml, day 9 under selection): gone
Morphology of cES cells (neomycin 200 μg/ml, day 10 under selection): gone
Neomycin concentrations that eliminated all cES cells (within 7 days): over 40 μg/ml
